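Compound exposure: 48 hours, 5 concentrations, 96-well plates. GI50: concentration for 50% inhibition of growth. The concentration for full growth arrest is given as TGI.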
What was measured:
Assay in all cases: NCI anticancer screen, dose series, 48 h; in the data active = GI50 below about 0.43 µM; inactive = the rest
IGROV1 ovarian = test system: IGROV1 ovarian
CAKI-1 renal = test system: CAKI-1 renal
KM12 colon = test system: KM12 colon
SF-268 CNS = test system: SF-268 CNS
K-562 leukemia = test system: K-562 leukemia
NCI/ADR-RES ovarian = test system: NCI/ADR-RES ovarian
M14 melanoma = test system: M14 melanoma
LOX IMVI melanoma = test system: LOX IMVI melanoma
EKVX NSCLC = test system: EKVX NSCLC
COLO 205 colon = test system: COLO 205 colon
PC-3 prostate = test system: PC-3 prostate
A549 NSCLC = test system: A549 NSCLC
UO-31 renal = test system: UO-31 renal
CCRF-CEM leukemia = test system: CCRF-CEM leukemia
T-47D breast = test system: T-47D breast
NCI-H226 lung = test system: NCI-H226 lung
SW-620 colon = test system: SW-620 colon
OVCAR-5 ovarian = test system: OVCAR-5 ovarian
SR leukemia = test system: SR leukemia
RPMI-8226 leukemia = test system: RPMI-8226 leukemia
MDA-MB-231 breast = test system: MDA-MB-231 breast
OVCAR-8 ovarian = test system: OVCAR-8 ovarian
786-0 renal = test system: 786-0 renal
SK-MEL-28 melanoma = test system: SK-MEL-28 melanoma
MDA-MB-435 = test system: MDA-MB-435
HS 578T breast = test system: HS 578T breast
U251 CNS = test system: U251 CNS
MOLT-4 leukemia = test system: MOLT-4 leukemia
DU-145 prostate = test system: DU-145 prostate
HL-60(TB) leukemia = test system: HL-60(TB) leukemia
TK-10 renal = test system: TK-10 renal
RXF 393 renal = test system: RXF 393 renal
NCI-H460 lung = test system: NCI-H460 lung
OVCAR-4 ovarian = test system: OVCAR-4 ovarian
UACC-62 melanoma = test system: UACC-62 melanoma
SK-OV-3 ovarian = test system: SK-OV-3 ovarian
SN12C renal = test system: SN12C renal
NCI-H23 lung = test system: NCI-H23 lung
ACHN renal = test system: ACHN renal
SF-295 CNS = test system: SF-295 CNS
A498 renal = test system: A498 renal
SF-539 CNS = test system: SF-539 CNS
HT29 colon = test system: HT29 colon
MCF7 breast = test system: MCF7 breast
MALME-3M melanoma = test system: MALME-3M melanoma
HCT-15 colon = test system: HCT-15 colon
BT-549 breast = test system: BT-549 breast
HCT-116 colon = test system: HCT-116 colon
OVCAR-3 ovarian = test system: OVCAR-3 ovarian
SNB-19 CNS = test system: SNB-19 CNS
UACC-257 melanoma = test system: UACC-257 melanoma
HOP-92 NSCLC = test system: HOP-92 NSCLC
NCI-H522 lung = test system: NCI-H522 lung
SK-MEL-5 melanoma = test system: SK-MEL-5 melanoma
SK-MEL-2 melanoma = test system: SK-MEL-2 melanoma
HOP-62 NSCLC = test system: HOP-62 NSCLC
HCC-2998 colon = test system: HCC-2998 colon
MDA-N = test system: MDA-N
SNB-75 CNS = test system: SNB-75 CNS

O=C(O)c1ccc(Oc2nc3ccccc3s2)cc1
> 100000 nM: TGI (IGROV1 ovarian) | TGI (CAKI-1 renal) | TGI (KM12 colon) | TGI (SF-268 CNS) | TGI (K-562 leukemia) | TGI (NCI/ADR-RES ovarian) | TGI (M14 melanoma) | TGI (LOX IMVI melanoma) | TGI (EKVX NSCLC) | TGI (COLO 205 colon) | TGI (PC-3 prostate) | TGI (A549 NSCLC) | TGI (UO-31 renal) | TGI (CCRF-CEM leukemia) | TGI (T-47D breast) | TGI (NCI-H226 lung) | TGI (SW-620 colon) | TGI (OVCAR-5 ovarian) | TGI (SR leukemia) | TGI (RPMI-8226 leukemia) | TGI (MDA-MB-231 breast) | TGI (OVCAR-8 ovarian) | TGI (786-0 renal) | TGI (SK-MEL-28 melanoma) | TGI (MDA-MB-435) | TGI (HS 578T breast) | TGI (U251 CNS) | TGI (MOLT-4 leukemia) | TGI (DU-145 prostate) | TGI (HL-60(TB) leukemia) | TGI (TK-10 renal) | TGI (RXF 393 renal) | TGI (NCI-H460 lung) | TGI (OVCAR-4 ovarian) | TGI (UACC-62 melanoma) | TGI (SK-OV-3 ovarian) | TGI (SN12C renal) | TGI (NCI-H23 lung) | TGI (ACHN renal) | TGI (SF-295 CNS) | TGI (A498 renal) | TGI (SF-539 CNS) | TGI (HT29 colon) | TGI (MCF7 breast) | TGI (MALME-3M melanoma) | TGI (HCT-15 colon) | TGI (BT-549 breast) | TGI (HCT-116 colon) | TGI (OVCAR-3 ovarian) | TGI (SNB-19 CNS) | TGI (UACC-257 melanoma) | TGI (HOP-92 NSCLC) | TGI (NCI-H522 lung) | TGI (SK-MEL-5 melanoma) | TGI (SK-MEL-2 melanoma) | TGI (HOP-62 NSCLC)

Cc1cc(C)nc(NCCC(O)(P(=O)(O)O)P(=O)(O)O)n1
> 100000 nM: TGI (IGROV1 ovarian) | TGI (CAKI-1 renal) | TGI (KM12 colon) | TGI (SF-268 CNS) | TGI (NCI/ADR-RES ovarian) | TGI (M14 melanoma) | TGI (LOX IMVI melanoma) | TGI (EKVX NSCLC) | TGI (COLO 205 colon) | TGI (PC-3 prostate) | TGI (A549 NSCLC) | TGI (UO-31 renal) | TGI (NCI-H226 lung) | TGI (OVCAR-5 ovarian) | TGI (MDA-MB-231 breast) | TGI (786-0 renal) | TGI (DU-145 prostate) | TGI (TK-10 renal) | TGI (RXF 393 renal) | TGI (NCI-H460 lung) | TGI (UACC-62 melanoma) | TGI (SK-OV-3 ovarian) | TGI (HCC-2998 colon) | TGI (NCI-H23 lung) | TGI (ACHN renal) | TGI (SF-295 CNS) | TGI (SF-539 CNS) | TGI (MCF7 breast) | TGI (MALME-3M melanoma) | TGI (HCT-15 colon) | TGI (BT-549 breast) | TGI (HCT-116 colon) | TGI (OVCAR-3 ovarian) | TGI (SNB-19 CNS) | TGI (UACC-257 melanoma) | TGI (NCI-H522 lung) | TGI (SK-MEL-5 melanoma) | TGI (MDA-N) | TGI (HOP-62 NSCLC)

COc1cc(/C=C/C(=O)c2c(C)nc3ccccc3c2C)ccc1OCCCCOc1cc2c(cc1OC)C(=O)N1CCC[C@H]1C=N2
955 nM: TGI (U251 CNS)
40400 nM: TGI (NCI/ADR-RES ovarian)
585 nM: TGI (RPMI-8226 leukemia)
1560 nM: TGI (SF-295 CNS)
873 nM: TGI (MDA-MB-435)
1120 nM: TGI (MOLT-4 leukemia)
1260 nM: TGI (NCI-H522 lung)
4620 nM: TGI (OVCAR-4 ovarian)
1470 nM: TGI (SK-MEL-5 melanoma)
822 nM: TGI (UACC-257 melanoma)
3350 nM: TGI (OVCAR-5 ovarian)
1160 nM: TGI (HCC-2998 colon)
631 nM: TGI (OVCAR-3 ovarian)
1350 nM: TGI (PC-3 prostate)
3080 nM: TGI (SK-OV-3 ovarian)
6490 nM: TGI (HCT-116 colon)
1080 nM: TGI (UO-31 renal)
538 nM: TGI (SW-620 colon)
2370 nM: TGI (MALME-3M melanoma)
5180 nM: TGI (HCT-15 colon)
active: GI50 (CAKI-1 renal) 331 nM | GI50 (KM12 colon) 308 nM | GI50 (SF-268 CNS) 277 nM | GI50 (PC-3 prostate) 296 nM | GI50 (UO-31 renal) 252 nM | GI50 (CCRF-CEM leukemia) 225 nM | GI50 (T-47D breast) 333 nM | GI50 (SNB-75 CNS) 334 nM | GI50 (SW-620 colon) 203 nM | GI50 (SR leukemia) 325 nM | GI50 (RPMI-8226 leukemia) 209 nM | GI50 (OVCAR-8 ovarian) 245 nM | GI50 (SK-MEL-28 melanoma) 214 nM | GI50 (MDA-MB-435) 274 nM | GI50 (HS 578T breast) 229 nM | GI50 (U251 CNS) 305 nM | GI50 (MOLT-4 leukemia) 325 nM | GI50 (DU-145 prostate) 368 nM | GI50 (HL-60(TB) leukemia) 196 nM | GI50 (TK-10 renal) 403 nM | GI50 (NCI-H23 lung) 396 nM | GI50 (SF-295 CNS) 416 nM | GI50 (A498 renal) 286 nM | GI50 (HT29 colon) 403 nM | GI50 (MCF7 breast) 238 nM | GI50 (BT-549 breast) 188 nM | GI50 (OVCAR-3 ovarian) 217 nM | GI50 (UACC-257 melanoma) 261 nM | GI50 (HOP-92 NSCLC) 190 nM | GI50 (NCI-H522 lung) 339 nM | GI50 (SK-MEL-2 melanoma) 414 nM
779 nM: TGI (A498 renal)
3260 nM: TGI (NCI-H226 lung)
3510 nM: TGI (MDA-MB-231 breast)
1040 nM: TGI (SF-268 CNS)
1130 nM: TGI (DU-145 prostate)
1360 nM: TGI (T-47D breast)
647 nM: TGI (SK-MEL-28 melanoma)
632 nM: TGI (HOP-92 NSCLC)
inactive: GI50 (NCI/ADR-RES ovarian) 3060 nM | GI50 (M14 melanoma) 1160 nM | GI50 (EKVX NSCLC) 1740 nM | GI50 (COLO 205 colon) 740 nM | GI50 (A549 NSCLC) 460 nM | GI50 (NCI-H226 lung) 1300 nM | GI50 (OVCAR-5 ovarian) 528 nM | GI50 (MDA-MB-231 breast) 606 nM | GI50 (786-0 renal) 602 nM | GI50 (NCI-H460 lung) 832 nM | GI50 (OVCAR-4 ovarian) 470 nM | GI50 (UACC-62 melanoma) 600 nM | GI50 (SK-OV-3 ovarian) 1180 nM | GI50 (HCC-2998 colon) 519 nM | GI50 (SN12C renal) 509 nM | GI50 (ACHN renal) 1460 nM | GI50 (SF-539 CNS) 550 nM | GI50 (MALME-3M melanoma) 554 nM | GI50 (HCT-15 colon) 1710 nM | GI50 (HCT-116 colon) 432 nM | GI50 (SNB-19 CNS) 872 nM | GI50 (SK-MEL-5 melanoma) 517 nM | GI50 (HOP-62 NSCLC) 1710 nM
1440 nM: TGI (CAKI-1 renal)
929 nM: TGI (SNB-75 CNS)
978 nM: TGI (SK-MEL-2 melanoma)
9870 nM: TGI (SN12C renal)
624 nM: TGI (HS 578T breast)
1540 nM: TGI (SF-539 CNS)
4170 nM: TGI (A549 NSCLC)
482 nM: TGI (BT-549 breast)
2020 nM: TGI (UACC-62 melanoma) | TGI (HT29 colon)
2570 nM: TGI (SNB-19 CNS)
514 nM: TGI (HL-60(TB) leukemia)
1420 nM: TGI (NCI-H23 lung)
3220 nM: TGI (ACHN renal)
6930 nM: TGI (HOP-62 NSCLC)
703 nM: TGI (OVCAR-8 ovarian)
3200 nM: TGI (TK-10 renal)
> 100000 nM: TGI (M14 melanoma) | TGI (SR leukemia)
3560 nM: TGI (EKVX NSCLC)
975 nM: TGI (MCF7 breast)
1860 nM: TGI (786-0 renal)
839 nM: TGI (KM12 colon)
2140 nM: TGI (COLO 205 colon)
1480 nM: TGI (CCRF-CEM leukemia)
2580 nM: TGI (NCI-H460 lung)

Source: PubChem BioAssay (NCI)
